Read-outs that look alike come from different tables or passages of the source.
Tests used:
[1] = target: T1, GIRK1/2 (Homo sapiens, UniProt P48051+P48549); experiment: thallium efflux assay by flow cytometry in CHO GIRK1/2 cells; assay type: cell-based
T1 construct: expressed in transfected cells; host or cells: CHO (Chinese hamster ovary) cells overexpressing GIRK1 and GIRK2
T1 sequence (P48549 1-501): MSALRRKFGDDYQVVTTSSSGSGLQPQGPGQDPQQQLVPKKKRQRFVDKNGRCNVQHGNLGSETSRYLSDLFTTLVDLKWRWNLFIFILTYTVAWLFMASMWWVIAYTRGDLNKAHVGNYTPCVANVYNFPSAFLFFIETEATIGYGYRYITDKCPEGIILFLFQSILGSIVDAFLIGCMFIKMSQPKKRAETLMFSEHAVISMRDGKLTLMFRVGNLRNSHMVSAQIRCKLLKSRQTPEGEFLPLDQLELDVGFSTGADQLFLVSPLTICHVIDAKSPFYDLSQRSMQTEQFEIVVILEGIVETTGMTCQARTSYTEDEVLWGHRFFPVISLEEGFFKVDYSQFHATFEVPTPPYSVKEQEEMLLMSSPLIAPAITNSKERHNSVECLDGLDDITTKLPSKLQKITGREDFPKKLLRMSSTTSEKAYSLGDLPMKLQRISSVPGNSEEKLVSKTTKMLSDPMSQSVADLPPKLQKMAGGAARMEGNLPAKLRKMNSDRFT
T1 sequence (P48051 1-423): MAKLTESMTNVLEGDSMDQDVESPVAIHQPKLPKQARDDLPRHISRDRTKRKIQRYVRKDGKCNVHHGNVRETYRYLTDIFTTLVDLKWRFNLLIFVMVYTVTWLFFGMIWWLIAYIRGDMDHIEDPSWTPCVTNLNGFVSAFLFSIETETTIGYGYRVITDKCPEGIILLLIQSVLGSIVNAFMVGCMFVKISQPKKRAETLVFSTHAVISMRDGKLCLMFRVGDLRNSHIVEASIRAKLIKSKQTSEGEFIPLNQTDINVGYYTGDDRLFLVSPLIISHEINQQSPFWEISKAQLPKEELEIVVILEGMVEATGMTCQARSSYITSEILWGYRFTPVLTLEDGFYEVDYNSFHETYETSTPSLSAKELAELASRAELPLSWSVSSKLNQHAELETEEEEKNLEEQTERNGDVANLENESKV
Method: CHO GIRK cells were treated with HEPES-Buffered Hanks Balanced Salt Solution (HHBSS, Control) or GIRK activator, VU0466551 (VU551). Data was acquired 50 minutes after addition of 1 μM VU551 using a BD Accuri C6 Flow Cytometer. […] FIG. 18 depicts an overlay of histograms of CHO GIRK1/2 cell fluorescence in treated and control cells.
FIG. 19 depicts the kinetic profile of CHO GIRK1/2 median cell fluorescence. Sample data was acquired before and at different time points after the addition of 3 μM GIRK activator, VU0466551 (VU551) or HHBSS (control). A slow increase in fluorescence is observed in the untreated group.

[2] = target: T2, GIRK (Homo sapiens, UniProt P48051+P48549); design: expressed in transfected cells; host or cells: CHO-K1 cells overexpressing GIRK channels; conditions: potassium indicator; plate reader or microscopy; read-out: EC50, literature reported value (calculated EC50s in line with it); cited from earlier work
T2 sequence (P48549 1-501): T1 sequence (P48549 1-501)
T2 sequence (P48051 1-423): T1 sequence (P48051 1-423)

[3] = target: T2, GIRK; experiment: traditional thallium flux assay (influx), dose response; assay type: cell-based; conditions: traditional thallium flux method, CHO GIRK cells
Method: FIG. 5: (Left) Overlay of normalized dose response curves acquired using new method. Data was acquired using different analytical methods or instruments, and all three result in similar profiles and reported EC50 values.
In a comparative test of the efflux method disclosed herein, EC50 values were determined using VU551 as the effector. Three different instruments were used to monitor the change in fluorescence: 1- kinetic imaging plate reader (Hamamatsu FDSS), 2 - fluorescent microscope; 3- fluorescent plate reader. FIG. 5 depicts an overlay of normalized dose response curves acquired using the efflux method described herein. Regardless of the method of data collection, all three instruments provided similar profiles and reported similar EC50 values. In the right graph of FIG. 5, a dose response curve acquired using traditional thallium flux assay methods is shown. […] The use of a plate reader to determine the EC50 in the efflux method produced the closest result to the traditional method.

SMILES: Cc1cc(NC(=O)Nc2ccc(F)c(F)c2)n(Cc2ccccc2)n1 [VU551]
- Mean cell fluorescence of the treated group ([1]; 1 μM, 50 minutes after addition, BD Accuri C6 Flow Cytometer, control 4.5M RFUs): 2.5 M
- change in median cell fluorescence (kinetic profile) ([1]; 3 μM, before and at different time points after addition): rapid loss in fluorescence
- EC50 [2]: ~75 nM
- EC50 [3]: 77 nM

Reference: patent publication US20240035973A1, “METHODS AND COMPOSITIONS OF STABLE THALLIUM FLUX ASSAYS FOR DETECTING MODULATORS OF ION CHANNELS” (ION Biosciences, priority 2022, published 2024)
